# Where “and” joins values, the source holds several entries; their conditions need not be identical. Equal values may be shown once.
# What was measured:
# Assay in all cases: MTT assay, growth inhibition by deguelin or deguelin derivatives
# Assay type in all cases: cell-based
# Details in all cases: 3 days
# [1] = tested on: H1299
# [2] = tested on: H460
# [3] = tested on: H322
# [4] = tested on: H358
# [5] = tested on: A549
# [6] = tested on: H596
structure (smiles),measurement,setting,value
"C=C(C)[C@H]1Cc2c(ccc3c(=O)c4c(oc23)COc2cc(OC)c(OC)cc2-4)O1 [6a,2a-dehydrorotenone]",% control,"[1]; H1299, 0.01 μM",0.99%
same,"MTT assay reading, Average","[1]; H1299, 0.01 μM",1.5514
same,"MTT assay reading, individual replicate","[1]; H1299, 0.01 μM",1.562 and 1.561 and 1.559 and 1.63 and 1.515 and 1.517 and 1.516
same,% control,"[1]; H1299, 0.1 μM",0.89%
same,"MTT assay reading, Average","[1]; H1299, 0.1 μM",1.3907
same,"MTT assay reading, individual replicate","[1]; H1299, 0.1 μM",1.39 and 1.308 and 1.385 and 1.539 and 1.281 and 1.351 and 1.481
same,% control,"[1]; H1299, 0.5 μM",0.95%
same,"MTT assay reading, Average","[1]; H1299, 0.5 μM",1.4937
same,"MTT assay reading, individual replicate","[1]; H1299, 0.5 μM",1.544 and 1.561 and 1.338 and 1.502 and 1.595 and 1.413 and 1.503
same,% control,"[1]; H1299, 1 μM",0.89%
same,"MTT assay reading, Average","[1]; H1299, 1 μM",1.3961
same,"MTT assay reading, individual replicate","[1]; H1299, 1 μM",1.452 and 1.321 and 1.233 and 1.57 and 1.421 and 1.33 and 1.446
same,% control,"[2]; H460, 0.01 μM",0.96%
same,"MTT assay reading, Average","[2]; H460, 0.01 μM",1.6774
same,"MTT assay reading, individual replicate","[2]; H460, 0.01 μM",1.625 and 1.563 and 1.731 and 1.89 and 1.443 and 1.675 and 1.815
same,% control,"[2]; H460, 0.1 μM",0.78%
same,"MTT assay reading, Average","[2]; H460, 0.1 μM",1.3666
same,"MTT assay reading, individual replicate","[2]; H460, 0.1 μM",1.314 (2×) and 1.333 and 1.204 and 1.501 and 1.379 and 1.521
same,% control,"[2]; H460, 0.5 μM",0.85%
same,"MTT assay reading, Average","[2]; H460, 0.5 μM",1.49
same,"MTT assay reading, individual replicate","[2]; H460, 0.5 μM",1.31 and 1.421 and 1.538 and 1.504 and 1.55 and 1.534 and 1.573
same,% control,"[2]; H460, 1 μM",0.79%
same,"MTT assay reading, Average","[2]; H460, 1 μM",1.382
same,"MTT assay reading, individual replicate","[2]; H460, 1 μM",1.253 and 1.353 and 1.351 and 1.347 and 1.429 and 1.319 and 1.622
same,"MTT assay reading, Average","[3]; H322, 0.01 μM",0.969
same,"MTT assay reading, individual replicate","[3]; H322, 0.01 μM",0.795 and 0.799 and 0.893 and 0.989 and 1.014 and 1.101 and 1.192
same,"MTT assay reading, Average","[3]; H322, 0.1 μM",0.8656
same,"MTT assay reading, individual replicate","[3]; H322, 0.1 μM",0.865 and 0.771 and 0.799 and 0.872 and 0.866 and 0.909 and 0.977
same,"MTT assay reading, Average","[3]; H322, 0.5 μM",0.828
same,"MTT assay reading, individual replicate","[3]; H322, 0.5 μM",0.736 and 0.809 and 0.833 and 0.746 and 0.89 and 0.958 and 0.824
same,"MTT assay reading, Average","[3]; H322, 1 μM",0.7213
same,"MTT assay reading, individual replicate","[3]; H322, 1 μM",0.677 and 0.658 and 0.692 and 0.681 and 0.68 and 0.859 and 0.802
same,"MTT assay reading, Average","[4]; H358, 0.01 μM",0.8861
same,"MTT assay reading, individual replicate","[4]; H358, 0.01 μM",0.784 and 0.734 and 0.786 and 0.686 and 0.95 and 1.192 and 1.071
same,"MTT assay reading, Average","[4]; H358, 0.1 μM",0.7511
same,"MTT assay reading, individual replicate","[4]; H358, 0.1 μM",0.602 and 0.652 and 0.603 and 0.672 and 0.792 and 0.778 and 1.159
same,"MTT assay reading, Average","[4]; H358, 0.5 μM",0.6756
same,"MTT assay reading, individual replicate","[4]; H358, 0.5 μM",0.533 and 0.604 and 0.6 and 0.736 and 0.633 and 0.734 and 0.889
same,"MTT assay reading, Average","[4]; H358, 1 μM",0.684
same,"MTT assay reading, individual replicate","[4]; H358, 1 μM",0.686 and 0.624 and 0.639 and 0.64 and 0.667 and 0.752 and 0.78
same,"MTT assay reading, Average","[5]; A549, 0.01 μM",1.7067
same,"MTT assay reading, individual replicate","[5]; A549, 0.01 μM",1.69 (2×) and 1.705 and 1.541 and 1.829 and 1.786 and 1.706
same,"MTT assay reading, Average","[5]; A549, 0.1 μM",1.4161
same,"MTT assay reading, individual replicate","[5]; A549, 0.1 μM",0.691 and 1.805 and 1.719 and 1.454 and 1.375 (2×) and 1.494
same,"MTT assay reading, Average","[5]; A549, 0.5 μM",1.4871
same,"MTT assay reading, individual replicate","[5]; A549, 0.5 μM",1.531 and 1.925 and 1.594 and 1.387 and 1.359 and 1.356 and 1.258
same,"MTT assay reading, Average","[5]; A549, 1 μM",1.4281
same,"MTT assay reading, individual replicate","[5]; A549, 1 μM",1.544 and 1.458 and 1.375 and 1.486 and 1.428 and 1.464 and 1.242
same,"MTT assay reading, Average","[6]; H596, 0.01 μM",1.6089
same,"MTT assay reading, individual replicate","[6]; H596, 0.01 μM",1.581 and 1.597 and 1.651 and 1.605 and 1.631 and 1.617 and 1.58
same,"MTT assay reading, Average","[6]; H596, 0.1 μM",1.399
same,"MTT assay reading, individual replicate","[6]; H596, 0.1 μM",1.347 and 1.381 and 1.333 and 1.513 and 1.417 and 1.34 and 1.462
same,"MTT assay reading, Average","[6]; H596, 0.5 μM",1.4016
same,"MTT assay reading, individual replicate","[6]; H596, 0.5 μM",1.343 and 1.467 and 1.312 and 1.463 and 1.351 and 1.399 and 1.476
same,"MTT assay reading, Average","[6]; H596, 1 μM",1.3214
same,"MTT assay reading, individual replicate","[6]; H596, 1 μM",1.234 and 1.257 and 1.341 and 1.494 and 1.326 and 1.319 and 1.279
"COc1cc2c(cc1OC)-c1c(oc3c4c(ccc3c1=O)OC(C)(C)C=C4)CO2 [7a,13a-dehydrodeguelin]",% control,"[1]; H1299, 0.01 μM",0.93%
same,"MTT assay reading, Average","[1]; H1299, 0.01 μM",1.3179
same,"MTT assay reading, individual replicate","[1]; H1299, 0.01 μM",1.311 and 1.344 and 1.402 and 1.302 and 1.286 and 1.293 and 1.287
same,% control,"[1]; H1299, 0.1 μM",0.87%
same,"MTT assay reading, Average","[1]; H1299, 0.1 μM",1.2374
same,"MTT assay reading, individual replicate","[1]; H1299, 0.1 μM",1.228 and 1.331 and 1.318 and 1.141 and 1.196 and 1.153 and 1.295
same,% control,"[1]; H1299, 0.5 μM",0.69%
same,"MTT assay reading, Average","[1]; H1299, 0.5 μM",0.9707
same,"MTT assay reading, individual replicate","[1]; H1299, 0.5 μM",1.033 and 1.017 and 1.106 and 0.913 and 0.874 and 0.947 and 0.905
same,% control,"[1]; H1299, 1 μM",0.60%
same,"MTT assay reading, Average","[1]; H1299, 1 μM",0.8452
same,"MTT assay reading, individual replicate","[1]; H1299, 1 μM",0.769 and 0.838 and 0.938 and 0.813 and 0.837 and 0.876
same,% control,"[2]; H460, 0.01 μM",0.86%
same,"MTT assay reading, Average","[2]; H460, 0.01 μM",1.4779
same,"MTT assay reading, individual replicate","[2]; H460, 0.01 μM",1.531 and 1.338 and 1.635 and 1.354 and 1.477 and 1.476 and 1.534
same,% control,"[2]; H460, 0.1 μM",0.88%
same,"MTT assay reading, Average","[2]; H460, 0.1 μM",1.5079
same,"MTT assay reading, individual replicate","[2]; H460, 0.1 μM",1.473 and 1.427 and 1.518 and 1.504 and 1.524 and 1.575 and 1.534
same,% control,"[2]; H460, 0.5 μM",0.78%
same,"MTT assay reading, Average","[2]; H460, 0.5 μM",1.3309
same,"MTT assay reading, individual replicate","[2]; H460, 0.5 μM",1.297 and 1.323 and 1.388 and 1.304 and 1.362 and 1.335 and 1.307
same,% control,"[2]; H460, 1 μM",0.64%
same,"MTT assay reading, Average","[2]; H460, 1 μM",1.1053
same,"MTT assay reading, individual replicate","[2]; H460, 1 μM",1.191 and 1.216 and 1.047 and 1.094 and 0.946 and 1.108 and 1.135
same,"MTT assay reading, Average","[3]; H322, 0.01 μM",1.0041
same,"MTT assay reading, individual replicate","[3]; H322, 0.01 μM",0.921 and 1.08 and 1.05 and 1.022 and 0.888 and 0.926 and 1.142
same,"MTT assay reading, Average","[3]; H322, 0.1 μM",1.0019
same,"MTT assay reading, individual replicate","[3]; H322, 0.1 μM",1.04 and 1.033 and 0.923 and 1.031 and 1.09 and 0.883 and 1.013
same,"MTT assay reading, Average","[3]; H322, 0.5 μM",0.866
same,"MTT assay reading, individual replicate","[3]; H322, 0.5 μM",0.837 and 0.8 and 0.975 and 0.926 and 0.806 and 0.811 and 0.907
same,"MTT assay reading, Average","[3]; H322, 1 μM",0.8379
same,"MTT assay reading, individual replicate","[3]; H322, 1 μM",0.841 and 0.799 and 0.822 and 0.932 and 0.793 and 0.709 and 0.969
same,"MTT assay reading, Average","[4]; H358, 0.01 μM",0.7673
same,"MTT assay reading, individual replicate","[4]; H358, 0.01 μM",0.79 and 0.678 and 0.647 and 0.812 and 0.791 and 0.864 and 0.789
same,"MTT assay reading, Average","[4]; H358, 0.1 μM",0.769
same,"MTT assay reading, individual replicate","[4]; H358, 0.1 μM",0.726 and 0.676 and 0.824 and 0.846 and 0.782 and 0.658 and 0.871
same,"MTT assay reading, Average","[4]; H358, 0.5 μM",0.719
same,"MTT assay reading, individual replicate","[4]; H358, 0.5 μM",0.684 and 0.6 and 0.66 and 0.739 and 0.819 and 0.753 and 0.778
same,"MTT assay reading, Average","[4]; H358, 1 μM",0.6534
same,"MTT assay reading, individual replicate","[4]; H358, 1 μM",0.691 and 0.548 and 0.643 and 0.706 and 0.647 and 0.656 and 0.683
same,"MTT assay reading, Average","[5]; A549, 0.01 μM",1.2597
same,"MTT assay reading, individual replicate","[5]; A549, 0.01 μM",1.182 and 1.147 and 1.307 and 1.208 and 1.279 and 1.361 and 1.334
same,"MTT assay reading, Average","[5]; A549, 0.1 μM",1.1816
same,"MTT assay reading, individual replicate","[5]; A549, 0.1 μM",1.073 and 1.17 and 1.208 and 1.308 and 1.211 and 1.152 and 1.149
same,"MTT assay reading, Average","[5]; A549, 0.5 μM",1.0421
same,"MTT assay reading, individual replicate","[5]; A549, 0.5 μM",1.107 and 1.032 and 0.931 and 0.964 and 1.036 and 1.104 and 1.121
same,"MTT assay reading, Average","[5]; A549, 1 μM",0.9223
same,"MTT assay reading, individual replicate","[5]; A549, 1 μM",0.97 and 0.971 and 1.014 and 0.89 and 0.862 and 0.886 and 0.863
same,"MTT assay reading, Average","[6]; H596, 0.01 μM",1.4338
same,"MTT assay reading, individual replicate","[6]; H596, 0.01 μM",1.408 and 1.317 and 1.526 and 1.458 and 1.495 and 1.399
same,"MTT assay reading, Average","[6]; H596, 0.1 μM",1.2779
same,"MTT assay reading, individual replicate","[6]; H596, 0.1 μM",1.356 and 1.281 and 1.153 and 1.273 and 1.246 and 1.358 and 1.278
same,"MTT assay reading, Average","[6]; H596, 0.5 μM",1.2116
same,"MTT assay reading, individual replicate","[6]; H596, 0.5 μM",1.19 and 1.194 and 1.071 and 1.133 and 1.285 and 1.365 and 1.243
same,"MTT assay reading, Average","[6]; H596, 1 μM",1.0616
same,"MTT assay reading, individual replicate","[6]; H596, 1 μM",1.202 and 1.183 and 1.019 and 1.159 and 1.07 and 0.899 (2×)
